Measured values: PubChem BioAssay AID248 (DTP/NCI, 2004)
Where “and” joins values, the source holds several entries; their conditions need not be identical. Equal values may be shown once. Inconclusive results and toxic doses are left out. Rule as the data show it: active = T/C of 150% or more; inactive = T/C below 125%.

System: L1210 leukemia ip in BDF1 mice, survival T/C
Assay: NCI In Vivo Anticancer Drug Screen. Data for tumor model L1210 Leukemia (intraperitoneal) in B6D2F1 (BDF1) mice
Settings: higher = longer survival
Method in brief: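 Mice bearing the transplanted tumor received compound or vehicle. Survival of the treated group was divided by that of the vehicle-treated control group to give the ratio.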

Measured: T/C

S=c1nc[nH]c2nc[nH]c12
inactive: endpoint: mean survival time, dose: 0.15 mg/kg/injection, schedule: Q01DX001 (ip), vehicle: other 102 % of control | endpoint: mean survival time, dose: 0.15 mg/kg/injection, schedule: Q01DX Z (ip), vehicle: other 98 % of control | endpoint: mean survival time, dose: 0.3 mg/kg/injection, schedule: Q01DX001 (ip), vehicle: other 101 % of control | endpoint: mean survival time, dose: 0.3 mg/kg/injection, schedule: Q01DX Z (ip), vehicle: other 101 % of control | endpoint: mean survival time, dose: 0.6 mg/kg/injection, schedule: Q01DX001 (ip), vehicle: other 93 % of control and 101 % of control | endpoint: mean survival time, dose: 0.6 mg/kg/injection, schedule: Q01DX Z (ip), vehicle: other 96 % of control | endpoint: mean survival time, dose: 0.63 mg/kg/injection, schedule: Q01DX015 (ip), vehicle: alkali diluted with saline 95 % of control | endpoint: mean survival time, dose: 1.1 mg/kg/injection, schedule: Q01DX001 (ip), vehicle: other 104 % of control | endpoint: mean survival time, dose: 1.25 mg/kg/injection, schedule: Q01DX015 (ip), vehicle: alkali diluted with saline 95 % of control | endpoint: mean survival time, dose: 1.3 mg/kg/injection, schedule: Q01DX001 (ip), vehicle: other 101 % of control | endpoint: mean survival time, dose: 1.3 mg/kg/injection, schedule: Q01DX Z (ip), vehicle: other 102 % of control | endpoint: mean survival time, dose: 1.9 mg/kg/injection, schedule: Q01DX009 (ip), vehicle: alkali diluted with saline 107 % of control | endpoint: mean survival time, dose: 2.0 mg/kg/injection, schedule: Q01DX001 (ip), vehicle: carboxymethylcellulose (CMC) 107 % of control | endpoint: mean survival time, dose: 2.2 mg/kg/injection, schedule: Q01DX001 (ip), vehicle: other 104 % of control | endpoint: mean survival time, dose: 2.5 mg/kg/injection, schedule: Q01DX015 (ip), vehicle: alkali diluted with saline 100 % of control | endpoint: mean survival time, dose: 2.5 mg/kg/injection, schedule: Q01DX Z (ip), vehicle: other 107 % of control | endpoint: mean survival time, dose: 3.8 mg/kg/injection, schedule: Q01DX009 (ip), vehicle: alkali diluted with saline 105 % of control | endpoint: mean survival time, dose: 3.8 mg/kg/injection, schedule: Q03DX Z (ip), vehicle: other 108 % of control | endpoint: mean survival time, dose: 4.0 mg/kg/injection, schedule: Q01DX001 (ip), vehicle: carboxymethylcellulose (CMC) 98 % of control | endpoint: mean survival time, dose: 4.4 mg/kg/injection, schedule: Q01DX001 (ip), vehicle: other 102 % of control | endpoint: mean survival time, dose: 5.0 mg/kg/injection, schedule: Q01DX015 (ip), vehicle: alkali diluted with saline 103 % of control | endpoint: mean survival time, dose: 5.0 mg/kg/injection, schedule: Q01DX Z (ip), vehicle: alkali diluted with saline 104 % of control and 110 % of control | endpoint: mean survival time, dose: 7.5 mg/kg/injection, schedule: Q01DX009 (ip), vehicle: alkali diluted with saline 101 % of control | endpoint: mean survival time, dose: 7.5 mg/kg/injection, schedule: Q01DX009 (ip), vehicle: saline 103 % of control | endpoint: mean survival time, dose: 7.5 mg/kg/injection, schedule: Q03DX Z (ip), vehicle: other 111 % of control | endpoint: mean survival time, dose: 8.0 mg/kg/injection, schedule: Q01DX001 (ip), vehicle: carboxymethylcellulose (CMC) 95 % of control | endpoint: mean survival time, dose: 8.0 mg/kg/injection, schedule: Q04DX002 (ip), vehicle: alkali diluted with saline 105 % of control and 106 % of control | endpoint: mean survival time, dose: 10.0 mg/kg/injection, schedule: Q01DX006 (iv), vehicle: other 103 % of control | endpoint: mean survival time, dose: 10.0 mg/kg/injection, schedule: Q01DX009 (oral), vehicle: saline with Tween-80 102 % of control and 107 % of control | endpoint: mean survival time, dose: 10.0 mg/kg/injection, schedule: Q01DX015 (ip), vehicle: alkali diluted with saline 101 % of control | endpoint: mean survival time, dose: 10.0 mg/kg/injection, schedule: Q01DX Z (ip), vehicle: alkali diluted with saline 110 % of control | endpoint: mean survival time, dose: 10.0 mg/kg/injection, schedule: Q01DX Z (sc), vehicle: other 111 % of control | endpoint: mean survival time, dose: 12.0 mg/kg/injection, schedule: Q04DX003 (ip), vehicle: saline 105 % of control | endpoint: mean survival time, dose: 12.5 mg/kg/injection, schedule: Q01DX009 (ip), vehicle: saline 112 % of control | endpoint: mean survival time, dose: 12.5 mg/kg/injection, schedule: Q01DX017 (ip), vehicle: other 104 % of control | endpoint: mean survival time, dose: 12.5 mg/kg/injection, schedule: Q01DX Z (ip), vehicle: other 105 % of control | endpoint: mean survival time, dose: 15.0 mg/kg/injection, schedule: Q01DX009 (ip), vehicle: saline 112 % of control | endpoint: mean survival time, dose: 16.0 mg/kg/injection, schedule: Q01DX001 (ip), vehicle: carboxymethylcellulose (CMC) 101 % of control | endpoint: mean survival time, dose: 16.0 mg/kg/injection, schedule: Q04DX002 (ip), vehicle: alkali diluted with saline 100 % of control and 102 % of control | endpoint: mean survival time, dose: 18.0 mg/kg/injection, schedule: Q01DX015 (ip), vehicle: alkali diluted with saline 104 % of control | endpoint: mean survival time, dose: 20.0 mg/kg/injection, schedule: Q01DX005 (ip), vehicle: alkali diluted with water 108 % of control and 111 % of control | endpoint: mean survival time, dose: 20.0 mg/kg/injection, schedule: Q01DX006 (iv), vehicle: other 108 % of control | endpoint: mean survival time, dose: 20.0 mg/kg/injection, schedule: Q01DX009 (oral), vehicle: saline with Tween-80 98 % of control and 105 % of control | endpoint: mean survival time, dose: 20.0 mg/kg/injection, schedule: Q01DX Z (ip), vehicle: alkali diluted with saline 110 % of control | endpoint: mean survival time, dose: 20.0 mg/kg/injection, schedule: Q02DX008 (ip), vehicle: alkali diluted with saline 105 % of control | endpoint: mean survival time, dose: 27.0 mg/kg/injection, schedule: Q01DX015 (ip), vehicle: alkali diluted with saline 106 % of control | endpoint: mean survival time, dose: 30.0 mg/kg/injection, schedule: Q04DX003 (ip), vehicle: saline 109 % of control | endpoint: mean survival time, dose: 32.0 mg/kg/injection, schedule: Q01DX001 (ip), vehicle: carboxymethylcellulose (CMC) 101 % of control | endpoint: mean survival time, dose: 32.0 mg/kg/injection, schedule: Q04DX002 (ip), vehicle: alkali diluted with saline 102 % of control and 103 % of control | endpoint: mean survival time, dose: 35.0 mg/kg/injection, schedule: Q01DX011 (ip), vehicle: alkali diluted with saline 108 % of control | endpoint: mean survival time, dose: 40.0 mg/kg/injection, schedule: Q01DX001 (ip), vehicle: alkali diluted with saline 104 % of control | endpoint: mean survival time, dose: 40.0 mg/kg/injection, schedule: Q01DX006 (iv), vehicle: other 111 % of control | endpoint: mean survival time, dose: 40.0 mg/kg/injection, schedule: Q#A X Z (ip), vehicle: other 94 % of control | endpoint: mean survival time, dose: 45.0 mg/kg/injection, schedule: Q06HX012 (ip), vehicle: alkali diluted with saline 96 % of control | endpoint: mean survival time, dose: 53.0 mg/kg/injection, schedule: Q01DX011 (ip), vehicle: alkali diluted with saline 109 % of control | endpoint: mean survival time, dose: 60.0 mg/kg/injection, schedule: Q01DX001 (ip), vehicle: alkali diluted with saline 110 % of control and 111 % of control | endpoint: mean survival time, dose: 60.0 mg/kg/injection, schedule: Q## X015 (ip), vehicle: other 107 % of control | endpoint: mean survival time, dose: 64.0 mg/kg/injection, schedule: Q01DX001 (ip), vehicle: carboxymethylcellulose (CMC) 98 % of control | endpoint: mean survival time, dose: 80.0 mg/kg/injection, schedule: Q01DX Z (ip), vehicle: carboxymethylcellulose (CMC) 105 % of control | endpoint: mean survival time, dose: 90.0 mg/kg/injection, schedule: Q01DX009 (ip), vehicle: carboxymethylcellulose (CMC) 107 % of control | endpoint: mean survival time, dose: 109.0 mg/kg/injection, schedule: Q01DX001 (ip), vehicle: alkali diluted with saline 110 % of control and 112 % of control | endpoint: mean survival time, dose: 109.0 mg/kg/injection, schedule: Q## X001 (ip), vehicle: alkali diluted with saline 111 % of control | endpoint: mean survival time, dose: 112.0 mg/kg/injection, schedule: Q02DX010 (ip), vehicle: carboxymethylcellulose (CMC) 110 % of control | endpoint: mean survival time, dose: 120.0 mg/kg/injection, schedule: Q01DX009 (ip), vehicle: carboxymethylcellulose (CMC) 103 % of control | endpoint: mean survival time, dose: 128.0 mg/kg/injection, schedule: Q01DX001 (ip), vehicle: carboxymethylcellulose (CMC) 95 % of control | endpoint: mean survival time, dose: 129.2 mg/kg/injection, schedule: Q02DX010 (ip), vehicle: carboxymethylcellulose (CMC) 110 % of control | endpoint: mean survival time, dose: 146.0 mg/kg/injection, schedule: Q01DX001 (ip), vehicle: alkali diluted with saline 108 % of control and 112 % of control | endpoint: mean survival time, dose: 151.0 mg/kg/injection, schedule: Q01DX015 (ip), vehicle: other 105 % of control | endpoint: mean survival time, dose: 160.0 mg/kg/injection, schedule: Q01DX009 (ip), vehicle: saline with Tween-80 104 % of control | endpoint: mean survival time, dose: 160.0 mg/kg/injection, schedule: Q01DX Z (im), vehicle: other 102 % of control | endpoint: mean survival time, dose: 200.0 mg/kg/injection, schedule: Q01DX009 (ip), vehicle: Klucel (hydroxypropylcellulose) (HPC) 103 % of control | endpoint: mean survival time, dose: 200.0 mg/kg/injection, schedule: Q01DX009 (ip), vehicle: alkali diluted with saline 108 % of control | endpoint: mean survival time, dose: 200.0 mg/kg/injection, schedule: Q## X009 (ip), vehicle: alkali diluted with saline 108 % of control | endpoint: mean survival time, dose: 202.0 mg/kg/injection, schedule: Q01DX009 (ip), vehicle: alkali diluted with saline 95 % of control | endpoint: mean survival time, dose: 240.0 mg/kg/injection, schedule: Q01DX009 (ip), vehicle: alkali diluted with saline 96 % of control | endpoint: mean survival time, dose: 240.0 mg/kg/injection, schedule: Q03DX Z (ip), vehicle: other 101 % of control | endpoint: mean survival time, dose: 256.0 mg/kg/injection, schedule: Q01DX001 (ip), vehicle: carboxymethylcellulose (CMC) 98 % of control | endpoint: mean survival time, dose: 303.0 mg/kg/injection, schedule: Q04DX003 (ip), vehicle: saline with Tween-80 101 % of control | endpoint: mean survival time, dose: 400.0 mg/kg/injection, schedule: Q04DX003 (ip), vehicle: saline with Tween-80 101 % of control | endpoint: mean survival time, dose: 510.0 mg/kg/injection, schedule: Q04DX002 (ip), vehicle: alkali diluted with saline 96 % of control and 104 % of control | endpoint: mean survival time, dose: 1020.0 mg/kg/injection, schedule: Q07DX Z (ip), vehicle: other 93 % of control | endpoint: mean survival time, dose: 2675.0 micrograms/kg/injection, schedule: Q01DX Z (ip), vehicle: carboxymethylcellulose (CMC) 108 % of control | endpoint: median survival time, dose: 6.25 mg/kg/injection, schedule: Q01DX009 (ip), vehicle: other 105 % of control | endpoint: median survival time, dose: 25.0 mg/kg/injection, schedule: Q01DX009 (ip), vehicle: other 111 % of control | endpoint: median survival time, dose: 100.0 mg/kg/injection, schedule: Q01DX009 (ip), vehicle: other 111 % of control | endpoint: median survival time, dose: 160.0 mg/kg/injection, schedule: Q01DX009 (ip), vehicle: saline 100 % of control
